Test systems include 786-0; A549; COLO 205; HCC 2998; HCT-15; HOP-92; Hs-578T; M14; MCF7; Malme-3M; NCI-H226; NCI-H460; OVCAR-5; SF-268; SF-295; SK-MEL-2; SNB-75; SR; UACC-62; UO-31.
Holding throughout (test): inhibition of tumour cell growth, NCI panel, 48 h

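96-well plates; 48 h exposure; 5 concentrations. Endpoints by linear interpolation between flanking doses. Not reached: highest tested concentration assigned. GI50 = concentration required for 50% inhibition of growth.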 Calls of active or inactive are those of the source. No stated cut-off is given here; in the data, active = GI50 up to about 1.1 µM and inactive = higher.

For `CCC/C(Cl)=N\OC(=O)Nc1ccc(Br)cc1`, the GI50 in the assay with 786-0 was 7.24 µM (inactive); in the assay on A549 it was 18.4 µM (inactive); in the assay on COLO 205, 2.73 µM (inactive); in the assay with HCC 2998, 17.3 µM (inactive); with HCT-15 it was 2.56 µM; in the assay with HOP-92, 3.33 µM (inactive). Further, the GI50 in the assay with Hs-578T is 21.1 µM (inactive); with M14 it was 12 µM (inactive); in the assay with MCF7 it was 6.47 µM (inactive); in the assay on Malme-3M it was 5.73 µM (inactive); in the assay with NCI-H226 it was 21.6 µM (inactive); in the assay with NCI-H460 it was 16.5 µM (inactive). Besides, the GI50 was 13.9 µM (inactive) in the assay with OVCAR-5; 17.7 µM (inactive) in the assay with SF-268; 14.9 µM (inactive) in the assay with SF-295; 15 µM (inactive) with SK-MEL-2; 13.5 µM (inactive) in the assay with SNB-75; 5.68 µM (inactive) with SR. For the same molecule, the GI50 was 18.9 µM (inactive) with UACC-62 and 13 µM (inactive) in the assay with UO-31.
Turning to `CC(C)=CCc1c(O)cc2oc(-c3ccc(O)cc3O)cc(=O)c2c1O`, the GI50 in the assay with 786-0 was 26 µM (inactive); in the assay with A549, 28.5 µM (inactive); with COLO 205 it was 28.2 µM (inactive); with HCC 2998 it was 17.3 µM (inactive); in the assay on HCT-15 it was 23 µM; in the assay with HOP-92, 32.4 µM (inactive). Further, the GI50 in the assay with Hs-578T is 42.8 µM (inactive); with M14, 27.9 µM (inactive); with MCF7, 24.4 µM (inactive); in the assay on Malme-3M, 25.3 µM (inactive); in the assay on NCI-H226 it was 57 µM (inactive); with NCI-H460, 36.6 µM (inactive). For the same molecule, the GI50 is 31 µM (inactive) in the assay on OVCAR-5; 38.8 µM (inactive) in the assay with SF-268; 31.6 µM (inactive) in the assay with SF-295; 25.4 µM (inactive) with SK-MEL-2; 23.8 µM (inactive) in the assay on SNB-75; 18.2 µM (inactive) in the assay with SR. Besides, the GI50 in the assay with UACC-62 is 18.1 µM (inactive); in the assay with UO-31, 4.32 µM (inactive).
Regarding `O=C1OC(C(O)C(O)C(O)CO)C(O)C1O` (stereo not given), the GI50 in the assay on 786-0 is > 100 µM (inactive); in the assay on A549 it was > 100 µM (inactive); with COLO 205, > 100 µM (inactive); in the assay with HCC 2998 it was > 100 µM (inactive); in the assay on HCT-15 it was over 100 µM; in the assay on HOP-92 it was > 100 µM (inactive). In addition, the GI50 in the assay with Hs-578T, with M14, with MCF7, with Malme-3M, with NCI-H226 and with NCI-H460 was > 100 µM (inactive) each time. For the same molecule, the GI50 with OVCAR-5, with SF-268, with SF-295, in the assay with SK-MEL-2, with SNB-75 and with SR was > 100 µM (inactive) each time. Besides, the GI50 with UACC-62 and with UO-31 was > 100 µM (inactive) each time.
In the case of `C=CCC1(O)C(=O)OC2C(O)COC21O` (stereo not given), the GI50 was > 100 µM (inactive) in the assay on 786-0; > 100 µM (inactive) with A549; > 100 µM (inactive) with COLO 205; > 100 µM (inactive) in the assay with HCC 2998; over 100 µM in the assay on HCT-15; > 100 µM (inactive) in the assay on HOP-92. Also, the GI50 in the assay on Hs-578T, in the assay on M14, in the assay with MCF7, with Malme-3M, in the assay on NCI-H226 and in the assay with NCI-H460 was > 100 µM (inactive) each time. The GI50 with OVCAR-5 is > 100 µM (inactive); in the assay with SF-268 it was > 100 µM (inactive); in the assay on SF-295, > 100 µM (inactive); in the assay with SK-MEL-2, > 100 µM (inactive); in the assay on SNB-75, 35.4 µM (inactive); in the assay with SR it was > 100 µM (inactive). Besides, the GI50 in the assay with UACC-62 and in the assay on UO-31 was > 100 µM (inactive) throughout.
On to `Cc1cc(=O)[nH]c2cc(NC(=O)C(CCCNC(=N)N)NC(=O)OCc3ccccc3)ccc12` (stereo not given), for which the GI50 in the assay on 786-0 was > 100 µM (inactive); in the assay on A549 it was > 100 µM (inactive); in the assay on COLO 205, > 100 µM (inactive); with HCC 2998 it was > 100 µM (inactive); with HCT-15 it was over 100 µM; with HOP-92, 78.5 µM (inactive). Also, the GI50 with Hs-578T, in the assay with M14, in the assay on MCF7, with Malme-3M, with NCI-H226 and with NCI-H460 was > 100 µM (inactive) each time. Moreover, the GI50 is > 100 µM (inactive) with OVCAR-5; > 100 µM (inactive) in the assay with SF-268; 48.5 µM (inactive) in the assay with SF-295; > 100 µM (inactive) with SK-MEL-2; > 100 µM (inactive) in the assay on SNB-75; > 100 µM (inactive) in the assay with SR. For the same molecule, the GI50 in the assay with UACC-62 and in the assay on UO-31 was > 100 µM (inactive) throughout.

Values taken from ChEMBL document CHEMBL1201862, “PubChem BioAssay data set” (2004).
